Experimental data: ChEMBL document CHEMBL1201862, “PubChem BioAssay data set” (2004)
The source made the active and inactive calls.

Tests used:
[1] = molecular target: T1, Calpain-2 catalytic subunit (Sus scrofa, UniProt P43367); test: pig calpain II inhibitor potency, dose response, biochemical, fluorogenic peptide substrate (AID 1420); assay type: functional
T1 sequence (P43367 whole entry): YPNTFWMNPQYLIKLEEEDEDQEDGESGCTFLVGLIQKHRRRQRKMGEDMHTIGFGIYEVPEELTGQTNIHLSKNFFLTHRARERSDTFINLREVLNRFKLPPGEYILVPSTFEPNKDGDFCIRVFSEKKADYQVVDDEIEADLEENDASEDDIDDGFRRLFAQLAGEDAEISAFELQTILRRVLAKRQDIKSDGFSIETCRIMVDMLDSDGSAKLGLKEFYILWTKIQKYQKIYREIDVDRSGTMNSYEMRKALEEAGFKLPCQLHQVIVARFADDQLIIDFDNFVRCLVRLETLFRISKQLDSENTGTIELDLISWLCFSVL

[2] = C. albicans growth with fluconazole, confirmation, fluorescence, retest (AID 2467); assay type: functional, cell-based
[3] = NIH-3T3 fibroblast cytotoxicity, dose response, cytotoxicity control, cell-based, fluorescence, Alamar Blue, secondary assay (AID 2327); assay type: functional;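 further: NIH-3T3 mouse fibroblasts cultured with fluconazole at 8 µg/mL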
Paired box protein Pax-8 = Paired box protein Pax-8 (Homo sapiens, UniProt Q06710); test: inhibitors of PAX8-driven TPO luciferase reporter, dose response, RMG-I cells, cherry-pick (AID 687027); assay type: functional, cell-based;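 further: luciferase reporter driven by Pax8 target thyroperoxidase promoter measured by SteadyGlo luminescence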
Chain of Paired box protein Pax-8 (Q06710 whole entry): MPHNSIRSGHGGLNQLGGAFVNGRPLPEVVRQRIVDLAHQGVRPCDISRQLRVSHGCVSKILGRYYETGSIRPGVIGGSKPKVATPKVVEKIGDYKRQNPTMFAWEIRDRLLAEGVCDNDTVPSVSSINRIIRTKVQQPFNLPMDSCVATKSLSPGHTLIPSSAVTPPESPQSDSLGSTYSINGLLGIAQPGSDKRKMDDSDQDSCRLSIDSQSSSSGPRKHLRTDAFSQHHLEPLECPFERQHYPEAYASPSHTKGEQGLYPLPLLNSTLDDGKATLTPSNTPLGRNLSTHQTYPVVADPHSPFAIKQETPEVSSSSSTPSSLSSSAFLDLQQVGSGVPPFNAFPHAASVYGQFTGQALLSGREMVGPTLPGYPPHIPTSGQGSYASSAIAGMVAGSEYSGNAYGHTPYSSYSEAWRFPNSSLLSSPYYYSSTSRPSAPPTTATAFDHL

[4] = molecular target: T2, Corticotropin-releasing factor receptor 2/Corticotropin-releasing factor-binding protein (Homo sapiens, UniProt P24387+Q13324); test: Dose Response confirmation of uHTS hits for small molecule antagonists of the CRF-binding protein and CRF-R2 receptor complex.; assay type: functional; details: read-out: IC50_Mean
T2 sequence (Q13324 whole entry): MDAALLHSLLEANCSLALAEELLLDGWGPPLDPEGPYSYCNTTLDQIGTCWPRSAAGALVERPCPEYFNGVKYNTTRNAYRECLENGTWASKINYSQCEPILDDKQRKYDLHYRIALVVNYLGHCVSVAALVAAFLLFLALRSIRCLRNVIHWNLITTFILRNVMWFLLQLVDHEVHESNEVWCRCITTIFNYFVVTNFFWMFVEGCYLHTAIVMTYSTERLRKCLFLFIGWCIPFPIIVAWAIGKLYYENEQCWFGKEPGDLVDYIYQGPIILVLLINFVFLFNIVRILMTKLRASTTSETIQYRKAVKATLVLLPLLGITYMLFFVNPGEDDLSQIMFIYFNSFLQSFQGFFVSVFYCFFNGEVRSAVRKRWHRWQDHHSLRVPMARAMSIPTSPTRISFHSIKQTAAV
T2 sequence (P24387 whole entry): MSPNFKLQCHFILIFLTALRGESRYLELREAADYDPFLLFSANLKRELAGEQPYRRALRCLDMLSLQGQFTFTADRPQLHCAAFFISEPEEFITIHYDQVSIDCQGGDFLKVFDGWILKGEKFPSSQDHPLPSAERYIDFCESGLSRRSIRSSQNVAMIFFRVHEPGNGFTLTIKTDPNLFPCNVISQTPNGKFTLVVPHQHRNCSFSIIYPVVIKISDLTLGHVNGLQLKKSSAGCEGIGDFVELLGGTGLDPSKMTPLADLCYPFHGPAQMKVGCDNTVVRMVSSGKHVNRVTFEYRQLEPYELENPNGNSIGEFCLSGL

[5] = molecular target: T2, Corticotropin-releasing factor receptor 2/Corticotropin-releasing factor-binding protein; test: activators of CRF receptor 2 with binding protein – uHTS hits, confirmation (AID 602473); assay type: functional; details: read-out: EC50_Mean
Leucine aminopeptidase = molecular target: T3, Leucine aminopeptidase (Plasmodium falciparum 3D7, UniProt Q8IL11); test: P. falciparum M17LAP inhibitors, primary screen, biochemical, fluorogenic H-Leu-NHMec substrate, 1536-well (AID 1619); assay type: functional
T3 sequence (Q8IL11 whole entry): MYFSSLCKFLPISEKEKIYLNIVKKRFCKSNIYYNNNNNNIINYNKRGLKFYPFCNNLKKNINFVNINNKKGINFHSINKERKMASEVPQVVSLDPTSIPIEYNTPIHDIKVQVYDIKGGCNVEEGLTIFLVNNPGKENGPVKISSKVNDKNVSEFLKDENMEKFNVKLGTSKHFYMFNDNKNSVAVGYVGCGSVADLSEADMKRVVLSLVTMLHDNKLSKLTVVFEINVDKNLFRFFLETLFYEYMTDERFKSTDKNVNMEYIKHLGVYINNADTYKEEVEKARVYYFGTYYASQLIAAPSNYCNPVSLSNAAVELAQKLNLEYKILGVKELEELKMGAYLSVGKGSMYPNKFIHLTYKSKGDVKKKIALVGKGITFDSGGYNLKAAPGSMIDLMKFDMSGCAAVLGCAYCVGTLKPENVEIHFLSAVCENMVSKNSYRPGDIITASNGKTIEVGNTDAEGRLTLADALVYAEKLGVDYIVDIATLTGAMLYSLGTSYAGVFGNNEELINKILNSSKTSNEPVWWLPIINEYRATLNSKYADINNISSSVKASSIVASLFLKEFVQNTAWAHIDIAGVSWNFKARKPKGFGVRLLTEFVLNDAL

[6] = molecular target: T4, Replicative DNA helicase DnaB (Mycobacterium tuberculosis, UniProt P9WMR3); test: DnaB intein splicing inhibitors, dose response, biochemical, cell-free fluorescence (AID 449749); assay type: functional
T4 sequence (P9WMR3 whole entry): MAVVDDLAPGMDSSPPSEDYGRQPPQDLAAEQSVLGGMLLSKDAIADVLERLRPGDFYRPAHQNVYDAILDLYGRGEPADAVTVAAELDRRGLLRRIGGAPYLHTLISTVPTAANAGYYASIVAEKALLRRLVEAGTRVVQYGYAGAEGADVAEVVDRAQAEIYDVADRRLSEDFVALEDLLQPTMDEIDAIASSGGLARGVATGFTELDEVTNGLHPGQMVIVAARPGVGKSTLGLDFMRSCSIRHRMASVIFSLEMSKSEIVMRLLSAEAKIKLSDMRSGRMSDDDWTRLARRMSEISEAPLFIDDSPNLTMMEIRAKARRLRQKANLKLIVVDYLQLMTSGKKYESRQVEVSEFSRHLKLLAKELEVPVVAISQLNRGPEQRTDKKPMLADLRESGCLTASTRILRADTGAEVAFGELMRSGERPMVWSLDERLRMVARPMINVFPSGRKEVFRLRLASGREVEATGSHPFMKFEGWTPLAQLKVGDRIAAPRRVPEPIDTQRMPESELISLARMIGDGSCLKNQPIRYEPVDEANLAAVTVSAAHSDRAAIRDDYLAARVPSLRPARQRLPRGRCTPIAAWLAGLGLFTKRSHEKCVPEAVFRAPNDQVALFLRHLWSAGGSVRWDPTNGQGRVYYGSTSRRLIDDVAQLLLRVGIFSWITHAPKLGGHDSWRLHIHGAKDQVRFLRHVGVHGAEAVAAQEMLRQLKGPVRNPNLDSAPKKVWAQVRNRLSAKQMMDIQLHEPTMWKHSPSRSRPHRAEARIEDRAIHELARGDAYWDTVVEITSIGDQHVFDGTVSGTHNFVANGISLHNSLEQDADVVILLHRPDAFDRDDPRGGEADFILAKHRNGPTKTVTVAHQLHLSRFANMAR

Protein RecA = molecular target: T5, Protein RecA (Mycobacterium tuberculosis, UniProt P9WHJ3); test: Fluorescence Cell-Free Homogeneous Dose Retest to Identify Inhibitors of RecA-Intein Splicing Activity. [Related pubchem assays (depositor defined):AID2097, AID2223, AID489010, AID492950]; assay type: functional
T5 sequence (P9WHJ3 whole entry): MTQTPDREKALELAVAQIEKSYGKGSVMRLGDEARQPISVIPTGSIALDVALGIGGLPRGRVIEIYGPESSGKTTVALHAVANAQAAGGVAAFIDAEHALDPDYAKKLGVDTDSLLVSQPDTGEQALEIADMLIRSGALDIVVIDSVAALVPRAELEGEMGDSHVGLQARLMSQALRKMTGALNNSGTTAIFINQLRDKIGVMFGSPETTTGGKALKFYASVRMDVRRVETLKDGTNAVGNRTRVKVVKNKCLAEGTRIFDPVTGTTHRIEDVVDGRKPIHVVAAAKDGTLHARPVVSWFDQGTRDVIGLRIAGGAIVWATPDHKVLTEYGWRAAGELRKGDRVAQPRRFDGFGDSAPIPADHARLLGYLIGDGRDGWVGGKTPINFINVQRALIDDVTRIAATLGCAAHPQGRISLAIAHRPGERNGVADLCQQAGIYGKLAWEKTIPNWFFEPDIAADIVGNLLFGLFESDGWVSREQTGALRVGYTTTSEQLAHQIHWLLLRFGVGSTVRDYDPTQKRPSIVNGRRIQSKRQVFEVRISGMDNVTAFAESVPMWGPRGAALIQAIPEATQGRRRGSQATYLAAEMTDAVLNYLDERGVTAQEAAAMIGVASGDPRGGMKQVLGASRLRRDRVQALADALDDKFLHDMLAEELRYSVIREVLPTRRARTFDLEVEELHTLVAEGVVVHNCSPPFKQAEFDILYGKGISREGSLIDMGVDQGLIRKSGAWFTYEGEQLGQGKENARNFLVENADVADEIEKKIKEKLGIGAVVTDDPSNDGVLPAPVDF

[7] = Luminescence Cell-Based Dose Confirmation HTS to Identify Activators of 5'UTR Stem-Loop Driven Alpha-Synuclein mRNA Translation in H4 Neuroglioblastoma Cells. [Related pubchem assays: 1829 (Project Summary), 1814 (Primary HTS)]; assay type: functional
[8] = Luminescence Cell-Based Dose Response HTS to Identify Activators of Luciferase Translation or Activity in H4 […] Cells. [Related pubchem assays: 1829 (Project Summary), 1814 (Primary HTS)]; assay type: functional
H4 = test: Luminescence Cell-Based Dose Response HTS to Identify Activators of 5'UTR Stem-Loop Driven Prion Protein mRNA Translation in H4 Neuroglioblastoma Cells. [Related pubchem assays: 1829 (Project Summary), 1814 (Primary HTS)]; assay type: functional; details: Homo sapiens
[9] = molecular target: T6, Rac GTPase-activating protein 1 (Homo sapiens, UniProt Q9H0H5); test: MgcRacGAP GTPase-activating activity inhibitors, confirmation, biochemical, ADP Hunter fluorescence, primary and confirmatory (AID 624330); assay type: functional
T6 sequence (Q9H0H5 whole entry): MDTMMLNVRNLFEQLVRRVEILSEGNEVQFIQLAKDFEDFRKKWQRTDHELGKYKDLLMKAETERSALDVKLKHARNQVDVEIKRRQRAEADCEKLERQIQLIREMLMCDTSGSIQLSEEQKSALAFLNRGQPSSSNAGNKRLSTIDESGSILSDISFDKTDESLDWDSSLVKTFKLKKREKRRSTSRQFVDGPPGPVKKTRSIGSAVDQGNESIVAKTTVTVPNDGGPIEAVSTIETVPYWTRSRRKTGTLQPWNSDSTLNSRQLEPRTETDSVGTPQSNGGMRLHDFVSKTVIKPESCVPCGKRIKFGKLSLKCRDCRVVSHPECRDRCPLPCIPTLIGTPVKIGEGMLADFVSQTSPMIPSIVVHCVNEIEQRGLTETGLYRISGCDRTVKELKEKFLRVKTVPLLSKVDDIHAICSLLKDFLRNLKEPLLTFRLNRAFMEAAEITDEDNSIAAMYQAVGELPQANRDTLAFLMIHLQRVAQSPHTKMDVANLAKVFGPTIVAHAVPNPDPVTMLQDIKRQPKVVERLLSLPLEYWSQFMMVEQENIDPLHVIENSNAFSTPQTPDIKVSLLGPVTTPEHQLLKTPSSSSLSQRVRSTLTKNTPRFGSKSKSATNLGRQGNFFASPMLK

O=C(CCn1c(=O)[nH]c2ccsc2c1=O)NCc1ccc(F)cc1
IC50 [1]: < 0.4 µM (not active)

OCCN1CCN(C(S)=NC2CCCC2)CC1
EC50 [2]: 5.25 µM (active)
EC50 [3]: 50.8 µM (active)

O=C(OCC(=O)N1CCN(C(=O)c2ccco2)CC1)c1cccc(S(=O)(=O)N2CCc3ccccc32)c1
AC50 (Paired box protein Pax-8): 1.38 µM (active)

O=C1C2CCCCC2C(=O)N1c1ccc(NC2CCCCC2)c([N+](=O)[O-])c1 (configuration not stated)
IC50 [1]: 4.65 µM (active)

Cc1ccc(Sc2c(C=O)c3ccccc3n2C)cc1
IC50 [4]: > 47.1 µM (inactive)
EC50 [5]: > 53 µM (inactive)

Cc1cc(NS(=O)(=O)c2ccc(NC(=O)CN3C(=O)c4ccccc4C3=O)cc2)nc(C)n1
IC50 (Leucine aminopeptidase): 64.4 µM (active)

CCOCCCNC(=O)C1CCC(CNS(=O)(=O)c2ccc(Cl)cc2)CC1 (configuration not stated)
IC50 [1]: > 50 µM (not active)

C/C(=C\c1ccco1)C1C(C#N)=C(N)Oc2[nH]nc(-c3ccccc3)c21 (configuration not stated)
IC50 (Leucine aminopeptidase): 83.7 µM (active)
AC50 [6]: 6.38 µM (active)
EC50 (Protein RecA): 3.12 µM (active)

COc1cccc(CNc2nn[nH]n2)c1OC
IC50 (Leucine aminopeptidase): 67.2 µM (active)

Cc1ccc(NC(=O)CSC2=C(C#N)C(c3ccco3)CC(=O)N2)cc1 (configuration not stated)
IC50 [4]: > 47.1 µM (inactive)
EC50 [5]: > 53 µM (inactive)
EC50 [7]: 0.908 µM (active)
EC50 [8]: 12.4 µM (active)
EC50 (H4): 16.1 µM (active)

COC(=O)C1CC(Cl)CN1c1ncc(C(F)(F)F)cc1Cl (configuration not stated)
IC50 [4]: > 47.1 µM (inactive)
EC50 [5]: > 53 µM (inactive)

CC(=O)Nc1ccc(NC(=O)CCCN2C(=O)c3ccccc3C2=O)cc1
EC50 [3]: > 150 µM (inactive)

Cc1ccc(-c2nc(N)sc2-c2ccc(C)cc2)cc1
IC50 [1]: 3.19 µM (not active)

OC(CNCc1ccc(Cl)cc1)(c1ccccc1)c1ccc(F)cc1 (configuration not stated)
IC50 [1]: 12.1 µM (not active)

CCOC(=O)c1cnn(CCOC(=O)c2cccc(F)c2)c1NC(=O)c1cccc(F)c1
AC50 (Paired box protein Pax-8): 20 µM (active)

Cc1ccc(CNC(=O)CCCCCNc2nc(S)nc3ccccc23)cc1
IC50 [1]: 24.8 µM (not active)

CC1CCCCN1C(=O)CSc1nc(O)cc(-c2ccccc2)n1 (configuration not stated)
IC50 (Leucine aminopeptidase): 63.5 µM (active)

CCCOC(=O)Nc1cc(OC)ccc1[N+](=O)[O-]
IC50 [1]: 8.71 µM (not active)

Cn1cc(C(=O)c2ccccc2)c2ccccc21
IC50 [4]: > 47.1 µM (inactive)
EC50 [5]: > 53 µM (inactive)

CCOc1ccc(C2C(C(=O)Nc3ccccc3)=C(C)N=c3s/c(=C/c4cccc(OCC(=O)O)c4)c(=O)n32)cc1 (configuration not stated)
IC50 (Leucine aminopeptidase): 5.95 µM (active)

O=C1c2ccccc2C(=O)N1/N=C/c1ccc(O)c(O)c1
IC50 (Leucine aminopeptidase): 30.4 µM (active)
IC50 [9]: 44.5 µM (active)
